Laboratory results as given in PubChem BioAssay (NCI).
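A five-concentration, 48-hour dose response in 96-well plates underlies each endpoint, interpolated linearly between surrounding concentrations. The concentration for full growth arrest is given as TGI.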

Tests used:
Assay in all cases: growth of human tumour cells (NCI), 48 h
[1] = system: SK-MEL-28 melanoma
[2] = system: ACHN renal
[3] = system: NCI/ADR-RES ovarian
[4] = system: KM12 colon
[5] = system: COLO 205 colon
[6] = system: HT29 colon
[7] = system: BT-549 breast
[8] = system: MCF7 breast
[9] = system: K-562 leukemia
[10] = system: UACC-257 melanoma
[11] = system: A498 renal
[12] = system: UACC-62 melanoma
[13] = system: MDA-MB-435
[14] = system: PC-3 prostate
[15] = system: T-47D breast
[16] = system: OVCAR-3 ovarian
[17] = system: OVCAR-8 ovarian
[18] = system: HCC-2998 colon
[19] = system: HCT-15 colon
[20] = system: A549 NSCLC
[21] = system: SN12C renal
[22] = system: EKVX NSCLC
[23] = system: SF-539 CNS
[24] = system: SK-MEL-2 melanoma
[25] = system: SW-620 colon
[26] = system: TK-10 renal
[27] = system: DU-145 prostate
[28] = system: RXF 393 renal
[29] = system: RPMI-8226 leukemia
[30] = system: MOLT-4 leukemia
[31] = system: SK-MEL-5 melanoma
[32] = system: M14 melanoma
[33] = system: SF-295 CNS
[34] = system: CAKI-1 renal
[35] = system: SNB-75 CNS
[36] = system: U251 CNS
[37] = system: SK-OV-3 ovarian
[38] = system: MDA-N
[39] = system: UO-31 renal
[40] = system: IGROV1 ovarian
[41] = system: NCI-H522 lung
[42] = system: NCI-H226 lung
[43] = system: SF-268 CNS
[44] = system: OVCAR-4 ovarian
[45] = system: HS 578T breast
[46] = system: SR leukemia
[47] = system: NCI-H460 lung
[48] = system: MALME-3M melanoma
[49] = system: HOP-62 NSCLC
[50] = system: CCRF-CEM leukemia
[51] = system: LOX IMVI melanoma
[52] = system: HOP-92 NSCLC
[53] = system: MDA-MB-231 breast
[54] = system: SNB-19 CNS
[55] = system: NCI-H23 lung
[56] = system: HCT-116 colon
[57] = system: OVCAR-5 ovarian
[58] = system: 786-0 renal

SMILES: CN(Cc1cnc2c(n1)C(N)=NN(N)N2)c1ccc(C(=O)NC(CCP(=O)(O)O)C(=O)O)cc1 (stereo not drawn)
- TGI [1]: > 100 µM
- TGI [2]: > 100 µM
- TGI [3]: > 55.8 µM
- TGI [4]: > 100 µM
- TGI [5]: > 100 µM
- TGI [6]: > 38.8 µM
- TGI [7]: > 89.6 µM
- TGI [8]: > 100 µM
- TGI [9]: > 100 µM
- TGI [10]: > 100 µM
- TGI [11]: > 100 µM
- TGI [12]: > 100 µM
- TGI [13]: > 100 µM
- TGI [14]: > 100 µM
- TGI [15]: > 100 µM
- TGI [16]: > 100 µM
- TGI [17]: > 58.3 µM
- TGI [18]: > 100 µM
- TGI [19]: > 100 µM
- TGI [20]: > 100 µM
- TGI [21]: > 100 µM
- TGI [22]: > 100 µM
- TGI [23]: > 100 µM
- TGI [24]: > 100 µM
- TGI [25]: > 100 µM
- TGI [26]: > 100 µM
- TGI [27]: > 100 µM
- TGI [28]: 71.8 µM
- TGI [29]: > 100 µM
- TGI [30]: > 100 µM
- TGI [31]: > 100 µM
- TGI [32]: > 100 µM
- TGI [33]: > 100 µM
- TGI [34]: > 100 µM
- TGI [35]: > 100 µM
- TGI [36]: > 100 µM
- TGI [37]: > 100 µM
- TGI [38]: > 100 µM
- TGI [39]: > 100 µM
- TGI [40]: > 100 µM
- TGI [41]: > 100 µM
- TGI [42]: > 54 µM
- TGI [43]: > 100 µM
- TGI [44]: > 100 µM
- TGI [45]: > 100 µM
- TGI [46]: > 100 µM
- TGI [47]: > 100 µM
- TGI [48]: > 100 µM
- TGI [49]: > 100 µM
- TGI [50]: > 100 µM
- TGI [51]: > 100 µM
- TGI [52]: > 100 µM
- TGI [53]: > 100 µM
- TGI [54]: > 100 µM
- TGI [55]: > 100 µM

SMILES: COc1ccc2[nH]c(S(=O)(=O)N3CC(CCl)c4ccc(N)cc43)cc2c1 (stereo not drawn)
- TGI [1]: 68.2 µM
- TGI [2]: 49.5 µM
- TGI [56]: > 31.8 µM
- TGI [3]: 18.6 µM
- TGI [4]: 3.86 µM
- TGI [5]: 53.3 µM
- TGI [6]: 4.69 µM
- TGI [7]: 27.6 µM
- TGI [8]: > 100 µM
- TGI [10]: 67.5 µM
- TGI [11]: 17.6 µM
- TGI [12]: 25.4 µM
- TGI [13]: 3.35 µM
- TGI [14]: 16.6 µM
- TGI [15]: > 100 µM
- TGI [16]: 25.8 µM
- TGI [17]: 19.4 µM
- TGI [18]: 14.9 µM
- TGI [19]: 26.4 µM
- TGI [20]: 36 µM
- TGI [21]: 16.5 µM
- TGI [22]: 52.6 µM
- TGI [23]: 12.7 µM
- TGI [25]: > 100 µM
- TGI [26]: > 82.3 µM
- TGI [27]: > 37.4 µM
- TGI [28]: 29.4 µM
- TGI [29]: 22 µM
- TGI [30]: 18.4 µM
- TGI [32]: 16.6 µM
- TGI [33]: 2.27 µM
- TGI [34]: 19.9 µM
- TGI [36]: > 70.5 µM
- TGI [57]: 35.2 µM
- TGI [37]: 38.3 µM
- TGI [38]: < 0.0189 µM
- TGI [39]: 4 µM
- TGI [40]: 24.2 µM
- TGI [41]: 10.1 µM
- TGI [42]: 20.1 µM
- TGI [43]: 14.1 µM
- TGI [44]: 35.3 µM
- TGI [45]: 16.5 µM
- TGI [58]: 14.7 µM
- TGI [46]: 16.9 µM
- TGI [47]: 14.2 µM
- TGI [48]: 27.6 µM
- TGI [49]: 28.6 µM
- TGI [50]: > 50.7 µM
- TGI [51]: 17.7 µM
- TGI [52]: 63.4 µM
- TGI [53]: 26.9 µM
- TGI [54]: > 100 µM
